Reference: ChEMBL document CHEMBL4400532, “Histone methyl transferases: A class of epigenetic opportunities to counter uncontrolled cell proliferation” (Eur J Med Chem, 2019)

Key:
[1] = test system: CCD-18Co; experiment: Cytotoxicity against human CCD-18Co cells after 72 hrs by CCK8 assay; assay type: cell-based
[2] = test system: HFL1; experiment: Cytotoxicity against human HFL1 cells after 72 hrs by CCK8 assay; assay type: cell-based; conditions: HFL1, 72 h
[3] = test system: HCT-116; experiment: Cytotoxicity against human HCT116 cells after 72 hrs by CCK8 assay; assay type: functional, cell-based; conditions: HCT-116, 72 h
[4] = test system: A549; experiment: Cytotoxicity against human A549 cells after 72 hrs by CCK8 assay; assay type: functional, cell-based; conditions: A549, 72 h
[5] = test system: PC-14; experiment: Cytotoxicity against human PC14 cells after 72 hrs by CCK8 assay; assay type: functional, cell-based; conditions: PC-14, 72 h
[6] = target: Histone-lysine N-methyltransferase EZH2 (Homo sapiens, UniProt Q15910); experiment: Inhibition of EZH2 (unknown origin)
[7] = target: Protein arginine N-methyltransferase 5 (Homo sapiens, UniProt O14744); experiment: Inhibition of PRMT5 (unknown origin)
[8] = target: Histone-lysine N-methyltransferase, H3 lysine-79 specific (Homo sapiens, UniProt Q8TEK3); experiment: Inhibition of DOT1L in human THP1 cells assessed as reduction in H3K79 methylation measured after 7 days; assay type: cell-based
[9] = target: T1, Histone-lysine N-methyltransferase EHMT2 (Homo sapiens, UniProt Q96KQ7); experiment: Inhibition of EHMT2 (unknown origin)
T1 sequence (Q96KQ7 whole entry): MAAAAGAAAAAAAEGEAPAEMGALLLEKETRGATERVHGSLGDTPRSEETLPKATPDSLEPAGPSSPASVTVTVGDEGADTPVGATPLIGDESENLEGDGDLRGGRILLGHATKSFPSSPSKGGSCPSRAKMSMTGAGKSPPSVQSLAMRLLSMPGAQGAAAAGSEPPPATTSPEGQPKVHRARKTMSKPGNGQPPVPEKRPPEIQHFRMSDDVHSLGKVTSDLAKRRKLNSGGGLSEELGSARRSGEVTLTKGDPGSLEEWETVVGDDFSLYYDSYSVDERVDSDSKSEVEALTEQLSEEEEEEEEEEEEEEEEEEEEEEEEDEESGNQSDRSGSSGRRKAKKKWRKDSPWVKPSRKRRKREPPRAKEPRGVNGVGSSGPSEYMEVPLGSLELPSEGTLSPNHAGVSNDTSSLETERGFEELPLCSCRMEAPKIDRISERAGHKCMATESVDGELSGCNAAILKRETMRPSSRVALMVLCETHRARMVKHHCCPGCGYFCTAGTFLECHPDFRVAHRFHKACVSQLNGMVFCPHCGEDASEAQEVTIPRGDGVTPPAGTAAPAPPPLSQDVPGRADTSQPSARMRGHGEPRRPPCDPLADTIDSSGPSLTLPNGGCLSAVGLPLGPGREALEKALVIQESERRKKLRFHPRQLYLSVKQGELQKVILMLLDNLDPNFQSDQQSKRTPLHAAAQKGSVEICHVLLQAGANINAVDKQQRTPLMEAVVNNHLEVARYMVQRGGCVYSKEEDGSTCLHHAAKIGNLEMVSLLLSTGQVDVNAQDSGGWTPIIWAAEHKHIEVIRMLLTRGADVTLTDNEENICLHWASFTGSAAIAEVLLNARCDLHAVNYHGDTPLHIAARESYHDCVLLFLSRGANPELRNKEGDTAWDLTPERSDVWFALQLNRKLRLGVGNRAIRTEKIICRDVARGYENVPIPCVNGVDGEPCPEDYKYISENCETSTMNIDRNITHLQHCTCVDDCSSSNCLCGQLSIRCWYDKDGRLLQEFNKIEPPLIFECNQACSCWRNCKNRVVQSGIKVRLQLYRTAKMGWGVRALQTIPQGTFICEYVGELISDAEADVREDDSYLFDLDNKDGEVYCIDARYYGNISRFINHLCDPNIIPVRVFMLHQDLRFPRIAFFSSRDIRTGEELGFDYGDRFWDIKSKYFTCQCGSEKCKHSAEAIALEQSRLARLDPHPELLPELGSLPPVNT

[10] = target: T2, Histone-arginine methyltransferase CARM1 (Homo sapiens, UniProt Q86X55); experiment: Inhibition of CARM1 (unknown origin)
T2 sequence (Q86X55 whole entry): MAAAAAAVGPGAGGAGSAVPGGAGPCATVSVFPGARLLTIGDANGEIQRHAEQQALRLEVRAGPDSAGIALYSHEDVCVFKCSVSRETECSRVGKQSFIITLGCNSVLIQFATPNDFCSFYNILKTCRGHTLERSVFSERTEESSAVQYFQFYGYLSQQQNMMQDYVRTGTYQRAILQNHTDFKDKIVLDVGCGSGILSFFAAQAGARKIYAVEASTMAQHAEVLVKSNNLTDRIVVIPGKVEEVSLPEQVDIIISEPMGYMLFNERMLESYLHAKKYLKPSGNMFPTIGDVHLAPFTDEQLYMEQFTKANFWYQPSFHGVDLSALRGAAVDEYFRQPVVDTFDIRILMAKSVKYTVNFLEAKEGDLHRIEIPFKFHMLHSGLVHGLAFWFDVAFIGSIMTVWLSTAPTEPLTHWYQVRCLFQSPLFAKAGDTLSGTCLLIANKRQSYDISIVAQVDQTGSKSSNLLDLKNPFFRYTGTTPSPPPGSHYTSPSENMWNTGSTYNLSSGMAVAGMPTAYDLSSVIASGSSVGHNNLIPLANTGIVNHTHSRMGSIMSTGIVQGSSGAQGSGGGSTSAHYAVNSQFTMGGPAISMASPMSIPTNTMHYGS

Sequence of Histone-lysine N-methyltransferase EZH2 (Q15910 whole entry): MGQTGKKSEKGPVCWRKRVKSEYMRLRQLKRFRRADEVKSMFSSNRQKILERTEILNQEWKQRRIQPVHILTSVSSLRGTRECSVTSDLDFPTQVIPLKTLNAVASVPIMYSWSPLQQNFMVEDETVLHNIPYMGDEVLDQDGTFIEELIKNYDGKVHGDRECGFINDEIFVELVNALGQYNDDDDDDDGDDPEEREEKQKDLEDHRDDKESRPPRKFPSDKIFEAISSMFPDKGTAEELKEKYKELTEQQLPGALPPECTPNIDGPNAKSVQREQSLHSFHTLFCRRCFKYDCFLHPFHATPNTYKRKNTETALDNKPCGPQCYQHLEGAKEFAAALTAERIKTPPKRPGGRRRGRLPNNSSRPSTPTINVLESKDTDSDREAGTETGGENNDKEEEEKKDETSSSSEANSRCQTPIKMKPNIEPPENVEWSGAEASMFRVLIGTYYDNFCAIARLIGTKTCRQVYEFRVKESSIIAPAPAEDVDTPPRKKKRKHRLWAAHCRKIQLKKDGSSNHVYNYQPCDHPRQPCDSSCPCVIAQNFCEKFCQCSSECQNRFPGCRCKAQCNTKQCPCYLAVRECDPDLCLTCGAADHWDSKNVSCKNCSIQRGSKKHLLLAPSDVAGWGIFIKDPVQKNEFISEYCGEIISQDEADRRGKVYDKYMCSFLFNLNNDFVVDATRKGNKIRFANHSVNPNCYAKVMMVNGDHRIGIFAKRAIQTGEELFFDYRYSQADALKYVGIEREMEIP
Sequence of Protein arginine N-methyltransferase 5 (O14744 whole entry): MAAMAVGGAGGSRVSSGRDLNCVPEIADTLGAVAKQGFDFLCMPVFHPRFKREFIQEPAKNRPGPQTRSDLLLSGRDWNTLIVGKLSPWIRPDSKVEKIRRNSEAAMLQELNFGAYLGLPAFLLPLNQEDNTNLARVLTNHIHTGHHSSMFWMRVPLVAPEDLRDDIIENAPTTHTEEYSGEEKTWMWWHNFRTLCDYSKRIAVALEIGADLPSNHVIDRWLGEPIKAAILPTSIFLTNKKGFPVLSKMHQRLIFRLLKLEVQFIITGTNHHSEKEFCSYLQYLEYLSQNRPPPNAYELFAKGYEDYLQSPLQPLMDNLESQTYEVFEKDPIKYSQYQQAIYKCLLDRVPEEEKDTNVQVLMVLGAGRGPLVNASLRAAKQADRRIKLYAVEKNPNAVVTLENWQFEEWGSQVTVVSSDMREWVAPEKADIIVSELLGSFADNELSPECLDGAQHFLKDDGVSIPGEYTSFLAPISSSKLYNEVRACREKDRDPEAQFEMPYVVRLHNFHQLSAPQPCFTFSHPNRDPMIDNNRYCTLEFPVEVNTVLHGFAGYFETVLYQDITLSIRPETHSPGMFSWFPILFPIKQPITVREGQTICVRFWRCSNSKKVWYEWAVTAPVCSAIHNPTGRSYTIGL
Sequence of Histone-lysine N-methyltransferase, H3 lysine-79 specific (Q8TEK3 whole entry): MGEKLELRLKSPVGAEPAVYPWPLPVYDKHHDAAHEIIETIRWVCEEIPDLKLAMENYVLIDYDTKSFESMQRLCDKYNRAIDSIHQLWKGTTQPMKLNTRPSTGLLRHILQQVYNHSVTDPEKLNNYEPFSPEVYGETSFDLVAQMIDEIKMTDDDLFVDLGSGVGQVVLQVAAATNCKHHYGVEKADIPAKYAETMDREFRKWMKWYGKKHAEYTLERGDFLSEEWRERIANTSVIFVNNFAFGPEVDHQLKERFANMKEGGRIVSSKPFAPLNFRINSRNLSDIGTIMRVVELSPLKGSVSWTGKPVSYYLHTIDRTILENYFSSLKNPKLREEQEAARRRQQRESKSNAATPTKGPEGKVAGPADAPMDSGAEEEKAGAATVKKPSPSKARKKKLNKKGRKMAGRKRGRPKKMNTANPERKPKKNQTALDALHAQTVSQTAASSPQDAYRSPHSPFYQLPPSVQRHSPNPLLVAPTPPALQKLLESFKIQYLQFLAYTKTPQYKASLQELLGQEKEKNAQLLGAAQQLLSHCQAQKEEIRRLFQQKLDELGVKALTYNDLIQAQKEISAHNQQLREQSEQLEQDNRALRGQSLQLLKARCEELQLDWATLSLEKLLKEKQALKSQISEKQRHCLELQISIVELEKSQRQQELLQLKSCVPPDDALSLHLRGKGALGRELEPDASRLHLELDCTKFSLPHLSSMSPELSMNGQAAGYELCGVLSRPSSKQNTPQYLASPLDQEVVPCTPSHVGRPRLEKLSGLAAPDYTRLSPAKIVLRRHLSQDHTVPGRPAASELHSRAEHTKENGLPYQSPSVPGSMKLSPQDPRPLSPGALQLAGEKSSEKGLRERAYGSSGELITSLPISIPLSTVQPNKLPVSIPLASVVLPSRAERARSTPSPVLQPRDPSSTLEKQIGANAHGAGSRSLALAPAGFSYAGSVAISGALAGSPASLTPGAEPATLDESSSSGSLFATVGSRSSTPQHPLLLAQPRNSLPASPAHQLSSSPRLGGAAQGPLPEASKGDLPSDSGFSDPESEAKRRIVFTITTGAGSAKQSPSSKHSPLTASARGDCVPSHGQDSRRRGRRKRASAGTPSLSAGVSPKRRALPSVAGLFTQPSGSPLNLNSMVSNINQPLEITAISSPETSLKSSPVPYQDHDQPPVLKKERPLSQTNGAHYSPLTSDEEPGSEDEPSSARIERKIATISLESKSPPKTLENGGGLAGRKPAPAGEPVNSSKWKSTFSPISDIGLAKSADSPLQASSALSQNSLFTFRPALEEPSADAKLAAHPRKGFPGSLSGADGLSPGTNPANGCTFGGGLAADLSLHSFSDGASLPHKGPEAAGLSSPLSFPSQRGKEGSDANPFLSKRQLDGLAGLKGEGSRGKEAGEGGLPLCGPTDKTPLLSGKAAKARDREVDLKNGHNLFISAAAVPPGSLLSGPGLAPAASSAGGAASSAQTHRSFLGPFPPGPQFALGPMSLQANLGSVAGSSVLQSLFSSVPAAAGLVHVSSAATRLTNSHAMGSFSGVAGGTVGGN

Structure (SMILES) | IC50 [1] [µM] | IC50 [2] [µM] | IC50 [3] [µM] | IC50 [4] [µM] | IC50 [5] [µM] | IC50 [6] [µM] | IC50 [7] [µM] | IC50 [8] [µM] | IC50 [9] [µM] | IC50 [10] [µM]
COc1cc(OC)c(-c2cn3cc(NCCN)c(OC)cc3n2)cc1Cl | < 10 | < 10 | < 10 | < 10 | < 10 | – | – | – | – | –
CC(CNC(=O)Nc1ccc(C(C)(C)C)cc1)CN(C)C[C@H]1O[C@@H](n2cnc3c(N)ncnc32)[C@H](O)[C@@H]1O (stereo not given in full) | – | – | – | – | – | > 50 | > 50 | < 0.1 | > 50 | > 50
